In brackets after ≈: the same amount, converted by molar mass. Where two headings read alike, the source gives them in different places.
Tests used:
Pseudomonas aeruginosa = assay: MIC, CLSI broth microdilution, Pseudomonas aeruginosa panel; format: cell-based; details: Pseudomonas aeruginosa, read-out: MIC
Experimental: (§1) Minimum inhibitory concentrations (MIC) were determined by reference Clinical and Laboratory Standards Institute (CLSI) broth microdilution methods per M7-A7 [2006]. Quality control ranges utilizing E. coli ATCC 25922, P. aeruginosa ATCC 27853 and S. aureus ATCC 29213, and interpretive criteria for comparator agents were as published in CLSI M100-S17 [2007]. Briefly, serial two-fold dilutions of the test compounds were prepared at 2× concentration in Mueller Hinton Broth. The compound dilutions were mixed in 96-well assay plates in a 1:1 ratio with bacterial inoculum. The inoculum was prepared by suspension of a colony from an agar plate that was prepared the previous day. Bacteria were suspended in sterile saline and added to each assay plate to obtain a final concentration of 5×10^5 CFU/mL. The plates were incubated at 35 C for 20 hours in ambient air.
The MIC panel presented in Table 1 contains 27 isolates of Pseudomonas aeruginosa: strains 1-22 are clinical isolates from around the world collected between 2004-2007 which contain representative resistance mechanisms commonly found in Pseudomonas, such as the AAC(6′)-I, AAC(6′)-II, APH(3′)-IIb, ANT(2″)-I, and perm/efflux; strains 23-27 are susceptible.

Acinetobacter baumannii = assay: MIC, CLSI broth microdilution, Acinetobacter baumannii panel; format: cell-based; details: Acinetobacter baumannii, read-out: MIC
Experimental: as §1
The MIC panel presented in Table 2 contains 29 isolates of Acinetobacter baumannii: strains 1-24 are clinical isolates from around the world collected between 2004-2007 which contain representative resistance mechanisms commonly found in Acinetobacter baumannii, such as AAC(3)-I and II, AAC(6′)-I, ANT(2″)-I, APH(3′)-VI, and perm/efflux; strains 25-29 are susceptible.

[1] = P. aeruginosa clinical strain 1 (resistant clinical isolate)
[2] = P. aeruginosa clinical strain 2 (resistant clinical isolate)
[3] = P. aeruginosa clinical strain 3 (resistant clinical isolate)
[4] = P. aeruginosa clinical strain 4 (resistant clinical isolate)
[5] = P. aeruginosa clinical strain 5 (resistant clinical isolate)
[6] = P. aeruginosa clinical strain 6 (resistant clinical isolate)
[7] = P. aeruginosa clinical strain 7 (resistant clinical isolate)
[8] = P. aeruginosa clinical strain 8 (resistant clinical isolate)
[9] = P. aeruginosa clinical strain 9 (resistant clinical isolate)
[10] = P. aeruginosa clinical strain 10 (resistant clinical isolate)
[11] = P. aeruginosa clinical strain 11 (resistant clinical isolate)
[12] = P. aeruginosa clinical strain 12 (resistant clinical isolate)
[13] = P. aeruginosa clinical strain 13 (resistant clinical isolate)
[14] = P. aeruginosa clinical strain 14 (resistant clinical isolate)
[15] = P. aeruginosa clinical strain 15 (resistant clinical isolate)
[16] = P. aeruginosa clinical strain 16 (resistant clinical isolate)
[17] = P. aeruginosa clinical strain 17 (resistant clinical isolate)
[18] = P. aeruginosa clinical strain 18 (resistant clinical isolate)
[19] = P. aeruginosa clinical strain 19 (resistant clinical isolate)
[20] = P. aeruginosa clinical strain 20 (resistant clinical isolate)
[21] = P. aeruginosa clinical strain 21 (resistant clinical isolate)
[22] = P. aeruginosa clinical strain 22 (resistant clinical isolate)
[23] = P. aeruginosa strain 23 (susceptible)
[24] = P. aeruginosa strain 24 (susceptible)
[25] = P. aeruginosa strain 25 (susceptible)
[26] = P. aeruginosa strain 26 (susceptible)
[27] = P. aeruginosa strain 27 (susceptible)
[28] = A. baumannii clinical strain 1 (resistant clinical isolate)
[29] = A. baumannii clinical strain 2 (resistant clinical isolate)
[30] = A. baumannii clinical strain 3 (resistant clinical isolate)
[31] = A. baumannii clinical strain 4 (resistant clinical isolate)
[32] = A. baumannii clinical strain 5 (resistant clinical isolate)
[33] = A. baumannii clinical strain 6 (resistant clinical isolate)
[34] = A. baumannii clinical strain 7 (resistant clinical isolate)
[35] = A. baumannii clinical strain 8 (resistant clinical isolate)
[36] = A. baumannii clinical strain 9 (resistant clinical isolate)
[37] = A. baumannii clinical strain 10 (resistant clinical isolate)
[38] = A. baumannii clinical strain 11 (resistant clinical isolate)
[39] = A. baumannii clinical strain 12 (resistant clinical isolate)
[40] = A. baumannii clinical strain 13 (resistant clinical isolate)
[41] = A. baumannii clinical strain 14 (resistant clinical isolate)
[42] = A. baumannii clinical strain 15 (resistant clinical isolate)
[43] = A. baumannii clinical strain 16 (resistant clinical isolate)
[44] = A. baumannii clinical strain 17 (resistant clinical isolate)
[45] = A. baumannii clinical strain 18 (resistant clinical isolate)
[46] = A. baumannii clinical strain 19 (resistant clinical isolate)
[47] = A. baumannii clinical strain 20 (resistant clinical isolate)
[48] = A. baumannii clinical strain 21 (resistant clinical isolate)
[49] = A. baumannii clinical strain 22 (resistant clinical isolate)
[50] = A. baumannii clinical strain 23 (resistant clinical isolate)
[51] = A. baumannii clinical strain 24 (resistant clinical isolate)
[52] = A. baumannii strain 25 (susceptible)
[53] = A. baumannii strain 26 (susceptible)
[54] = A. baumannii strain 27 (susceptible)
[55] = A. baumannii strain 28 (susceptible)
[56] = A. baumannii strain 29 (susceptible)

## NCC[C@H](O)C(=O)N[C@@H]1C[C@H](N)[C@@H](O[C@H]2O[C@H](CNCCO)[C@@H](O)C[C@H]2N)[C@H](O[C@@H]2O[C@H](CO)[C@@H](O[C@H]3O[C@@H](CN)[C@@H](O)[C@H](O)[C@H]3N)[C@H]2O)[C@H]1O [Compound 18]
Pseudomonas aeruginosa; [1]
  MIC: ≤ 1 µg/mL
Pseudomonas aeruginosa; [2]
  MIC: ≤ 1 µg/mL
Pseudomonas aeruginosa; [3]
  MIC: 1 to 8 µg/mL (≈ 1.34 to 10.8 µM)
Pseudomonas aeruginosa; [4]
  MIC: 1 to 8 µg/mL (≈ 1.34 to 10.8 µM)
Pseudomonas aeruginosa; [5]
  MIC: 1 to 8 µg/mL (≈ 1.34 to 10.8 µM)
Pseudomonas aeruginosa; [6]
  MIC: 1 to 8 µg/mL (≈ 1.34 to 10.8 µM)
Pseudomonas aeruginosa; [7]
  MIC: ≤ 1 µg/mL
Pseudomonas aeruginosa; [8]
  MIC: 8 to 16 µg/mL (≈ 10.8 to 21.5 µM)
Pseudomonas aeruginosa; [9]
  MIC: 1 to 8 µg/mL (≈ 1.34 to 10.8 µM)
Pseudomonas aeruginosa; [10]
  MIC: 8 to 16 µg/mL (≈ 10.8 to 21.5 µM)
Pseudomonas aeruginosa; [11]
  MIC: ≤ 1 µg/mL
Pseudomonas aeruginosa; [12]
  MIC: 1 to 8 µg/mL (≈ 1.34 to 10.8 µM)
Pseudomonas aeruginosa; [13]
  MIC: 16 to 32 µg/mL (≈ 21.5 to 43 µM)
Pseudomonas aeruginosa; [14]
  MIC: 1 to 8 µg/mL (≈ 1.34 to 10.8 µM)
Pseudomonas aeruginosa; [15]
  MIC: 1 to 8 µg/mL (≈ 1.34 to 10.8 µM)
Pseudomonas aeruginosa; [16]
  MIC: 1 to 8 µg/mL (≈ 1.34 to 10.8 µM)
Pseudomonas aeruginosa; [17]
  MIC: 1 to 8 µg/mL (≈ 1.34 to 10.8 µM)
Pseudomonas aeruginosa; [18]
  MIC: 1 to 8 µg/mL (≈ 1.34 to 10.8 µM)
Pseudomonas aeruginosa; [19]
  MIC: 16 to 32 µg/mL (≈ 21.5 to 43 µM)
Pseudomonas aeruginosa; [20]
  MIC: 16 to 32 µg/mL (≈ 21.5 to 43 µM)
Pseudomonas aeruginosa; [21]
  MIC: 8 to 16 µg/mL (≈ 10.8 to 21.5 µM)
Pseudomonas aeruginosa; [22]
  MIC: 1 to 8 µg/mL (≈ 1.34 to 10.8 µM)
Pseudomonas aeruginosa; [23]
  MIC: ≤ 1 µg/mL
Pseudomonas aeruginosa; [24]
  MIC: ≤ 1 µg/mL
Pseudomonas aeruginosa; [25]
  MIC: ≤ 1 µg/mL
Pseudomonas aeruginosa; [26]
  MIC: ≤ 1 µg/mL
Pseudomonas aeruginosa; [27]
  MIC: ≤ 1 µg/mL
Acinetobacter baumannii; [28]
  MIC: 1 to 8 µg/mL (≈ 1.34 to 10.8 µM)
Acinetobacter baumannii; [29]
  MIC: 8 to 16 µg/mL (≈ 10.8 to 21.5 µM)
Acinetobacter baumannii; [30]
  MIC: 1 to 8 µg/mL (≈ 1.34 to 10.8 µM)
Acinetobacter baumannii; [31]
  MIC: 16 to 32 µg/mL (≈ 21.5 to 43 µM)
Acinetobacter baumannii; [32]
  MIC: 1 to 8 µg/mL (≈ 1.34 to 10.8 µM)
Acinetobacter baumannii; [33]
  MIC: 1 to 8 µg/mL (≈ 1.34 to 10.8 µM)
Acinetobacter baumannii; [34]
  MIC: ≤ 1 µg/mL
Acinetobacter baumannii; [35]
  MIC: 1 to 8 µg/mL (≈ 1.34 to 10.8 µM)
Acinetobacter baumannii; [36]
  MIC: ≤ 1 µg/mL
Acinetobacter baumannii; [37]
  MIC: 1 to 8 µg/mL (≈ 1.34 to 10.8 µM)
Acinetobacter baumannii; [38]
  MIC: ≤ 1 µg/mL
Acinetobacter baumannii; [39]
  MIC: ≤ 1 µg/mL
Acinetobacter baumannii; [40]
  MIC: ≤ 1 µg/mL
Acinetobacter baumannii; [41]
  MIC: 1 to 8 µg/mL (≈ 1.34 to 10.8 µM)
Acinetobacter baumannii; [42]
  MIC: ≤ 1 µg/mL
Acinetobacter baumannii; [43]
  MIC: 1 to 8 µg/mL (≈ 1.34 to 10.8 µM)
Acinetobacter baumannii; [44]
  MIC: 1 to 8 µg/mL (≈ 1.34 to 10.8 µM)
Acinetobacter baumannii; [45]
  MIC: 8 to 16 µg/mL (≈ 10.8 to 21.5 µM)
Acinetobacter baumannii; [46]
  MIC: 1 to 8 µg/mL (≈ 1.34 to 10.8 µM)
Acinetobacter baumannii; [47]
  MIC: 8 to 16 µg/mL (≈ 10.8 to 21.5 µM)
Acinetobacter baumannii; [48]
  MIC: ≤ 1 µg/mL
Acinetobacter baumannii; [49]
  MIC: 16 to 32 µg/mL (≈ 21.5 to 43 µM)
Acinetobacter baumannii; [50]
  MIC: ≤ 1 µg/mL
Acinetobacter baumannii; [51]
  MIC: 16 to 32 µg/mL (≈ 21.5 to 43 µM)
Acinetobacter baumannii; [52]
  MIC: ≤ 1 µg/mL
Acinetobacter baumannii; [53]
  MIC: 1 to 8 µg/mL (≈ 1.34 to 10.8 µM)
Acinetobacter baumannii; [54]
  MIC: ≤ 1 µg/mL
Acinetobacter baumannii; [55]
  MIC: ≤ 1 µg/mL
Acinetobacter baumannii; [56]
  MIC: ≤ 1 µg/mL

## NC[C@H]1O[C@H](O[C@H]2[C@H](O)[C@@H](O[C@H]3O[C@H](CO)[C@@H](O)[C@H](N)[C@H]3O)[C@H](N)C[C@@H]2N)[C@H](N)C[C@@H]1O [TOB, tobramycin]
Pseudomonas aeruginosa; [1]
  MIC: ≥ 32 µg/mL
Pseudomonas aeruginosa; [2]
  MIC: 16 to 32 µg/mL (≈ 34.2 to 68.4 µM)
Pseudomonas aeruginosa; [3]
  MIC: ≥ 32 µg/mL
Pseudomonas aeruginosa; [4]
  MIC: ≥ 32 µg/mL
Pseudomonas aeruginosa; [5]
  MIC: ≥ 32 µg/mL
Pseudomonas aeruginosa; [6]
  MIC: ≥ 32 µg/mL
Pseudomonas aeruginosa; [7]
  MIC: ≥ 32 µg/mL
Pseudomonas aeruginosa; [8]
  MIC: ≥ 32 µg/mL
Pseudomonas aeruginosa; [9]
  MIC: ≥ 32 µg/mL
Pseudomonas aeruginosa; [10]
  MIC: ≥ 32 µg/mL
Pseudomonas aeruginosa; [11]
  MIC: 8 to 16 µg/mL (≈ 17.1 to 34.2 µM)
Pseudomonas aeruginosa; [12]
  MIC: ≥ 32 µg/mL
Pseudomonas aeruginosa; [13]
  MIC: ≥ 32 µg/mL
Pseudomonas aeruginosa; [14]
  MIC: ≥ 32 µg/mL
Pseudomonas aeruginosa; [15]
  MIC: ≥ 32 µg/mL
Pseudomonas aeruginosa; [16]
  MIC: ≥ 32 µg/mL
Pseudomonas aeruginosa; [17]
  MIC: ≥ 32 µg/mL
Pseudomonas aeruginosa; [18]
  MIC: ≥ 32 µg/mL
Pseudomonas aeruginosa; [19]
  MIC: ≥ 32 µg/mL
Pseudomonas aeruginosa; [20]
  MIC: 1 to 8 µg/mL (≈ 2.14 to 17.1 µM)
Pseudomonas aeruginosa; [21]
  MIC: ≤ 1 µg/mL
Pseudomonas aeruginosa; [22]
  MIC: ≤ 1 µg/mL
Pseudomonas aeruginosa; [23]
  MIC: ≤ 1 µg/mL
Pseudomonas aeruginosa; [24]
  MIC: ≤ 1 µg/mL
Pseudomonas aeruginosa; [25]
  MIC: ≤ 1 µg/mL
Pseudomonas aeruginosa; [26]
  MIC: ≤ 1 µg/mL
Pseudomonas aeruginosa; [27]
  MIC: 1 to 8 µg/mL (≈ 2.14 to 17.1 µM)
Acinetobacter baumannii; [28]
  MIC: ≥ 32 µg/mL
Acinetobacter baumannii; [29]
  MIC: ≥ 32 µg/mL
Acinetobacter baumannii; [30]
  MIC: ≥ 32 µg/mL
Acinetobacter baumannii; [31]
  MIC: ≥ 32 µg/mL
Acinetobacter baumannii; [32]
  MIC: ≥ 32 µg/mL
Acinetobacter baumannii; [33]
  MIC: ≥ 32 µg/mL
Acinetobacter baumannii; [34]
  MIC: 1 to 8 µg/mL (≈ 2.14 to 17.1 µM)
Acinetobacter baumannii; [35]
  MIC: ≥ 32 µg/mL
Acinetobacter baumannii; [36]
  MIC: ≥ 32 µg/mL
Acinetobacter baumannii; [37]
  MIC: ≥ 32 µg/mL
Acinetobacter baumannii; [38]
  MIC: ≥ 32 µg/mL
Acinetobacter baumannii; [39]
  MIC: 16 to 32 µg/mL (≈ 34.2 to 68.4 µM)
Acinetobacter baumannii; [40]
  MIC: ≤ 1 µg/mL
Acinetobacter baumannii; [41]
  MIC: ≤ 1 µg/mL
Acinetobacter baumannii; [42]
  MIC: ≤ 1 µg/mL
Acinetobacter baumannii; [43]
  MIC: 1 to 8 µg/mL (≈ 2.14 to 17.1 µM)
Acinetobacter baumannii; [44]
  MIC: ≤ 1 µg/mL
Acinetobacter baumannii; [45]
  MIC: 1 to 8 µg/mL (≈ 2.14 to 17.1 µM)
Acinetobacter baumannii; [46]
  MIC: ≤ 1 µg/mL
Acinetobacter baumannii; [47]
  MIC: 1 to 8 µg/mL (≈ 2.14 to 17.1 µM)
Acinetobacter baumannii; [48]
  MIC: ≥ 32 µg/mL
Acinetobacter baumannii; [49]
  MIC: ≥ 32 µg/mL
Acinetobacter baumannii; [50]
  MIC: ≥ 32 µg/mL
Acinetobacter baumannii; [51]
  MIC: ≥ 32 µg/mL
Acinetobacter baumannii; [52]
  MIC: ≤ 1 µg/mL
Acinetobacter baumannii; [53]
  MIC: ≤ 1 µg/mL
Acinetobacter baumannii; [54]
  MIC: ≤ 1 µg/mL
Acinetobacter baumannii; [55]
  MIC: ≤ 1 µg/mL
Acinetobacter baumannii; [56]
  MIC: ≤ 1 µg/mL
